Article PMC11088877, “AMP-activated protein kinase can be allosterically activated by ADP but AMP remains the key activating ligand” (Biochemical Journal, 2024)
pEC50, pIC50: −log10 of the molar value. “And” between values parts separate entries of the source, which are not always exact repeats. Equal entries are not always repeated.

How the values were obtained:
[1] = system: rat liver AMPK; assay: Allosteric activation and inhibition of native rat liver AMPK by AMP and ADP (SAMS peptide kinase assay); format: biochemical; design: IC50/EC50: unit not given beside the values; conditions: for maximal extent of activation: Discussion (for ADP: rat liver AMPK and human α2β2γ1 complex); for effect of CD73 in the assay on allosteric activation by the nucleotide: AMP 0.3 mM or ADP 1 mM, CD73 550 ng
From the text: To study allosteric effects, we initially used a preparation of native rat liver AMPK [4]. While not homogeneous, this preparation has a high specific kinase activity (1.3 µmol/min/mg) and is a combination of the α1, α2, β1, β2 and γ1 subunit isoforms (Supplementary Figure S1). Being from a mammalian source both β subunit isoforms would be N-myristoylated and we have shown previously that the preparation is not contaminated with any protein phosphatases that dephosphorylate Thr172 [4]. We assessed the potential allosteric effects of both AMP and ADP at three different concentrations of ATP. We maintained Mg^2+ ions at a constant 4.8 mM excess above total ATP, a design that ensures that the concentration of the Mg.ATP^2− complex varies as a fixed proportion of total ATP [19].
As previously reported, with AMP we obtained bell-shaped curves due to activation at low concentrations combined with inhibition at higher concentrations (Figure 1). We have previously shown that the allosteric activation is due to binding of AMP to one or more of the regulatory sites on the γ subunit, whereas the inhibition is due to binding of AMP at the catalytic site within the α subunit kinase domain [4]. Consistent with the fact that ATP competes with AMP at both sites, as the ATP concentration was progressively raised from 0.2 to 1.0 and 5 mM, the bell-shaped curves shifted to the right, towards higher concentrations of AMP. The data were fitted to an equation for activation at one site and inactivation at a second site, as detailed in the legend to Figure 1. The best-fit parameters are shown in Supplementary Table S1, and these values were used to draw the curves in Figure 1A–C; the best-fit estimates for EC50 and IC50 are indicated by dashed vertical lines, faint lines for AMP and heavier lines for ADP.
Figure 1. Allosteric activation of rat liver AMPK by AMP and ADP at three different concentrations of ATP. (A) 200 µM ATP; (B) 1 mM ATP; (C) 5 mM ATP. [Mg^2+] was maintained at a constant excess of 4.8 mM above [ATP] as recommended previously. Results (mean ± SD, n = 2) were fitted to the equation: Y = 1 + (((Activation-1) × X)/(EC50 + X))-(((activation) × X)/(IC50 + X)), where Y is the activity, X is the concentration of AMP or ADP, Activation is the extrapolated maximal activation by AMP or ADP, EC50 is the concentration of AMP or ADP causing half-maximal activation, and IC50 is the concentration of AMP or ADP causing half-maximal inhibition. The dashed vertical lines show the estimated EC50 and IC50 values, faint lines for AMP and bold lines for ADP. A reliable estimate of EC50 could not be computed for ADP at 0.2 mM ATP (graph (A)). Best-fit values of all parameters used to generate the curves are listed in Supplementary Table S1.
Figure 2. Allosteric activation of rat liver AMPK by AMP and ADP in the presence and absence of the nucleotidase CD73. Allosteric activation was assessed as in Figure 1 with a single fixed concentration of AMP or ADP (0.3 or 1 mM respectively) in the presence or absence of CD73 (550 ng). Statistical significance of differences in results (mean ± SEM, n = 3) were assessed by two-way ANOVA. Effect of nucleotide: ****P < 0.0001; effect of CD73: ^††††P < 0.0001, ns, not significant.
AMPK assays measured the transfer of radioactivity from [γ-^33P]ATP to a peptide substrate, which was separated from unreacted ATP by binding to P81 paper. This assay was described previously except that we used [γ-^33P] rather than [γ-^32P]ATP. In some assays (specified in Figure legends) the concentration of ATP was increased from 0.2 to 1 or 5 mM ATP, with MgCl2 concentrations maintained at a constant 4.8 mM excess above the concentration of ATP [19]. Where allosteric activation by AMP or ADP was being studied, we used the SAMS peptide as substrate. For all other assays the AMARA peptide was used.

[2] = target: T1, human α2β2γ1 complex, CBS4 mutant (I312G) (Homo sapiens, UniProt P54619+P54646, I312G); assay: AMPK activation and Thr172 phosphorylation by the LKB1 complex, CBS4 mutant; format: biochemical; conditions: 300 µM nucleotide, 200 µM ATP
T1 construct: made in house; host or cells: Escherichia coli
T1 sequence (P54619 whole entry I312G): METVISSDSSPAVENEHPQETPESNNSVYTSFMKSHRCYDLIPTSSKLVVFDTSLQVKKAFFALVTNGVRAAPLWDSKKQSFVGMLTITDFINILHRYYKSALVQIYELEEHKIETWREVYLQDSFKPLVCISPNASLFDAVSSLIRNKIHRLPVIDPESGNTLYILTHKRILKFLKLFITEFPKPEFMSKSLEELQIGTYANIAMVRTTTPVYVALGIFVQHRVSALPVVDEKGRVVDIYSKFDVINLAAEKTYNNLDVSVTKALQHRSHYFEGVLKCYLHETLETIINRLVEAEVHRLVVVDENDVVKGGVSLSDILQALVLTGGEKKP
T1 sequence (P54646 whole entry): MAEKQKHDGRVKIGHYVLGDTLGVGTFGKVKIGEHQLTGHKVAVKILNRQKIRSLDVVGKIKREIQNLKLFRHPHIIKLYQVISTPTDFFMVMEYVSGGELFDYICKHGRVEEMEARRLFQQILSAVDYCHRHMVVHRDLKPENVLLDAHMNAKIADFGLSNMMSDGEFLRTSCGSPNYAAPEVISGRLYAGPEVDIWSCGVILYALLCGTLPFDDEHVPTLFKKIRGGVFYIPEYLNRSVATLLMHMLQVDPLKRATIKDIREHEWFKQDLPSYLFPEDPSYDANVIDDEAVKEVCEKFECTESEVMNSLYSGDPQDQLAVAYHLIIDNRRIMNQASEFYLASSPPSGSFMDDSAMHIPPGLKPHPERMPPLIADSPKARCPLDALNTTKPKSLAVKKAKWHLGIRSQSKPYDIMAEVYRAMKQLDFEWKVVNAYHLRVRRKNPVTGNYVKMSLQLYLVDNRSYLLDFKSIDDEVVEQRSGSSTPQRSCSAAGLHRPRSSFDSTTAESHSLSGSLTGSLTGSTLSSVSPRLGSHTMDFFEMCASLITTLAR
T1 sequence (O43741 whole entry partner): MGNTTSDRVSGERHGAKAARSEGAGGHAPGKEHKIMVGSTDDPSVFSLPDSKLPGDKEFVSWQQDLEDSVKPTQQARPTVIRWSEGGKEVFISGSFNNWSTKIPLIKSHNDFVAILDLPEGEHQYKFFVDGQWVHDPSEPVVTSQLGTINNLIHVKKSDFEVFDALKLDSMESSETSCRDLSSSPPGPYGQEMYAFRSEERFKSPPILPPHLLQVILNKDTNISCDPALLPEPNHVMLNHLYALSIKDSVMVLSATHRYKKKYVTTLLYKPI
Experimental: The relative roles of the three CBS sites in the other two mechanisms of activation of AMPK by AMP or ADP, i.e. promotion of Thr172 phosphorylation by LKB1, and protection against Thr172 dephosphorylation by protein phosphatases, have not been examined previously. As expected, incubation of the α2β2γ1 AMPK complex with a fixed, limiting amount of purified LKB1:STRADα:MO25α complex in the presence of 200 µM Mg.ATP^2− caused a large degree of activation (Figure 5A) and phosphorylation (Figure 5B) of AMPK (unphosphorylated α2β2γ1 complex), which were stimulated more than 2-fold by 300 µM AMP and 1.6-fold by 300 µM ADP.
Figure 5. Effects of AMP or ADP on AMPK activation and Thr172 phosphorylation by the LKB1:STRADα:MO25α complex. Unphosphorylated human α2β2γ1 complexes (WT, or with L129D/V130D, V276G/L277G or I312G mutations affecting CBS1, CBS3 or CBS4 respectively) were incubated with ATP and a fixed concentration of the LKB1:STRADα:MO25α complex in the presence or absence of AMP or ADP (both 300 µM), as described in the Materials and methods section. After the incubation aliquots were withdrawn for (A) AMPK assay or (B) Western blots. […] For (B), due to a limit on the number of lanes that could be run on one gel, single replicates from the triplicate assays were analysed. […]

Structure (SMILES): Nc1ncnc2c1ncn2[C@@H]1O[C@H](COP(=O)(O)OP(=O)(O)O)[C@@H](O)[C@H]1O [ADP]
- maximal extent of activation ([1]; 5 mM ATP): ≈ 1.5 fold
- Activation (extrapolated maximal activation) ([1]; rat liver AMPK, 0.2 mM ATP): no activation was detectable and none
- pIC50 ([1]; rat liver AMPK, 0.2 mM ATP): 3.40
- observed maximal extent of activation above basal ([1]; rat liver AMPK, 1 mM ATP): ≈ 25%
- Activation (extrapolated maximal activation) ([1]; rat liver AMPK, 1.0 mM ATP): 2.4 fold and 2.4 (1.8 -??) fold
- pEC50 ([1]; rat liver AMPK, 1.0 mM ATP): 3.91
- pIC50 ([1]; rat liver AMPK, 1.0 mM ATP): 3.16
- IC50/EC50 ([1]; rat liver AMPK, 1.0 mM ATP): 6 and 5.7
- observed maximal extent of activation above basal ([1]; rat liver AMPK, 5 mM ATP): ≈ 50%
- Activation (extrapolated maximal activation) ([1]; rat liver AMPK, 5.0 mM ATP): 2.0 fold and 2.0 (1.7 -2.8) fold
- pEC50 ([1]; rat liver AMPK, 5.0 mM ATP): 3.66
- pIC50 ([1]; rat liver AMPK, 5.0 mM ATP): 2.40
- IC50/EC50 ([1]; rat liver AMPK, 5.0 mM ATP): 18
- effect of CD73 in the assay on allosteric activation by the nucleotide ([1]; rat liver AMPK): did not significantly affect
- effect of nucleotide on activation/phosphorylation by LKB1 in the mutant [2]: abolished

Structure (SMILES): Nc1ncnc2c1ncn2[C@@H]1O[C@H](COP(=O)(O)O)[C@@H](O)[C@H]1O [AMP]
- maximal extent of activation ([1]; 5 mM ATP): 3 fold
- Activation (extrapolated maximal activation) ([1]; rat liver AMPK, 0.2 mM ATP): 2.9 (2.8 -3.0) fold
- pEC50 ([1]; rat liver AMPK, 0.2 mM ATP): 5.19
- pIC50 ([1]; rat liver AMPK, 0.2 mM ATP): 2.77
- IC50/EC50 ([1]; rat liver AMPK, 0.2 mM ATP): 270
- Activation (extrapolated maximal activation) ([1]; rat liver AMPK, 1.0 mM ATP): 2.8 (2.7-2.9) fold
- pEC50 ([1]; rat liver AMPK, 1.0 mM ATP): 4.85
- pIC50 ([1]; rat liver AMPK, 1.0 mM ATP): 2.16
- IC50/EC50 ([1]; rat liver AMPK, 1.0 mM ATP): 490
- Activation (extrapolated maximal activation) ([1]; rat liver AMPK, 5.0 mM ATP): 3.7 (3.5-3.8) fold
- pEC50 ([1]; rat liver AMPK, 5.0 mM ATP): 4.44
- pIC50 ([1]; rat liver AMPK, 5.0 mM ATP): 1.77
- IC50/EC50 ([1]; rat liver AMPK, 5.0 mM ATP): ~500 and 470
- degree of activation over basal ([1]; rat liver AMPK, 0.2 to 5 mM ATP): 3- to 4 fold
- effect of CD73 in the assay on allosteric activation by the nucleotide ([1]; rat liver AMPK): completely abolished
- effect of nucleotide on activation/phosphorylation by LKB1 in the mutant [2]: abolished
